This is an account of results in patent US10857105B2, “Compounds and compositions for intracellular delivery of therapeutic agents” (ModernaTX, Inc., priority 2017, dated 2020).

One series concerns luciferase (Luc) mRNA. As to the kind of experiment: Luciferase expression after subcutaneous administration to mice. Type of series: in vivo, CD-1 mice. To be noted: 6 hr. time point, relative to MC3; for Novel lipid/MC3 expression ratio, s.c. Luc (mpk) 0.5: 0.5 mpk. The source says:
FIGS. 19A and 19B show the results of luciferase expression measured upon subcutaneous administration of various nanoparticle compositions to CD-1 mice at 0.05 mpk. FIG. 19A is a bar graph showing total flux at 6 hr after administration. The numbers above each bar indicate the expression ratio relative to MC3. […] Numbers 1-12 in the Figures refer to compositions containing the following: 1: PBS, 2: MC3, 3: Compound 25; 4: Compound 30; 5: Compound 20; 6: Compound 110; 7: Compound 112; 8: Compound 113; 9: Compound 72; 10: Compound 75; 11: Compound 122, 12: Compound 24.
FIGS. 20A-20C is a series of graphs summarizing luciferase expression levels in (FIG. 20A) spleen (FIG. 20B) liver, and (FIG. 20C) at the injection site, ex vivo, 24 h after administration of nanoparticle compositions containing compounds of the disclosure to CD-1 mice. Total light flux values were acquired via body luminescent imaging (BLI). PBS (phosphate buffered saline) was used as a control. Numbers 1-12 in the Figures refer to compositions containing the following: 1: PBS, 2: MC3, 3: Compound 25; 4: Compound 30; 5: Compound 20; 6: Compound 110; 7: Compound 112; 8: Compound 113; 9: Compound 72; 10: Compound 75; 11: Compound 122, 12: Compound 24.
FIGS. 22A-22C are a series of graphs summarizing luciferase expression levels at (FIG. 22A) 3 h, (FIG. 22B) 6 h, and (FIG. 22C) 24 h after subcutaneous administration of nanoparticle compositions containing compounds of the disclosure to mice. Total light flux values were acquired via body luminescent imaging (BLI). PBS (phosphate buffered saline) was used as a control. Numbers 1-12 in the Figures refer to compositions containing the following: 1: PBS, 2: MC3, 3: Compound 168; 4: Compound 23; 5: Compound 19; 6: Compound 108; 7: Compound 109; 8: Compound 111; 9: Compound 60; 10: Compound 61; 11: Compound 69, 12: Compound 128.

In another series the test system is hEPO mRNA. As to the kind of experiment: hEPO expression and cytokine induction after intravenous administration to mice. The following applies: for hEPO expression, 3 h / Cytokine expression, IL-6 (6 h) / Cytokine expression, IP-10 (6 h) / hEPO expression, 6 h / hEPO expression, 24 h: intravenous 0.5 mpk. Format: in vivo. How it is done:
FIG. 17 is a graph showing the hEPO mRNA expression in CD1-mice measured 3 h (left block), 6 h (middle block) and 24 h (right block) after intravenous administration of various nanoparticle compositions. Numbers 1-13 refer to compositions containing an mRNA expressing hEPO and the following: 1: Compound 147, 2: Compound 184, 3: Compound 232; 4: Compound 189; 5: Compound 200; 6: Compound 233; 7: Compound 234; 8: Compound 235; 9: Compound 237; 10: Compound 239; 11: Compound 243; 12: MC3; 13: PBS. […]
Sample formulations of nanoparticle compositions including different lipids are generally first evaluated according to Luc expression in vivo. The activity of several such compositions was further evaluated using an mRNA encoding hEPO. Nanoparticle compositions including Compounds 6, 18, 25, 30, 108-112, 60, and 122, or MC3 were prepared according to Example 2.
The expression of hEPO and cytokine induction in mice intravenously administered a nanoparticle composition at a dose of 0.5 mpk were measured at 3, 6, and 24 hours. […] The expression of hEPO in mice intramuscularly administered a nanoparticle composition from Table 1B at a dose of 0.01 mpk were measured at 3, 6, and 24 hours. […] (see
Table 12 compares the nanoparticle compositions including compounds according to Formula (I), (IA), (IB), (II), (IIa), (IIb), (IIc), (IId), (IIe), (IIf), (IIg), or (III) to the compositions including MC3 on the basis of expression and flux levels. […] Thus, these lipids may be useful in nanoparticle composition therapeutics.

The next series relates to mouse tissues. Description: Lipid clearance from mouse tissues after weekly dosing 0.05 mg/kg mRNA on day 1, 8 and 15. Format: in vivo. The protocol: Repeat dosing of mRNA in an MC3-based LNP for a therapeutic indication would be expected to lead to accumulation of MC3 in tissues, based on the measured half-life. Therefore it was investigated whether the favorable single dose pharmacokinetics of compound 18 were maintained with weekly dosing. Clearance of MC3 and compound 18 from multiple mouse tissues was measured after dosing 0.05 mg/kg mRNA on day 1, 8 and 15 (FIG. 30A). Following dosing with MC3 LNPs, lipid was detected in liver, spleen, plasma, kidney, heart and lung; with liver and spleen containing the largest concentrations (FIG. 30A, for full panel of tissues see FIG. 35A). […] Compound 18 was also detected in plasma, lung, and kidney, but not in heart (FIG. 35A).

Series [1] concerns modified luciferase (Luc) mRNA and H10 mRNA. As to the kind of experiment: Expression after intramuscular administration of formulations including Luc mRNA and H10 mRNA. Type of series: in vivo. The following applies: 6 hours after intramuscular administration. How it is done:
Sample formulations including both modified luciferase (Luc) mRNA and H10 mRNA were prepared and administered intramuscularly and the resulting expression and immunogenicity were evaluated simultaneously. Formulations including compounds according to Formula (I), (IA), (IB), (II), (IIa), (IIb), (IIc), (IId), (IIe), (IIf), (IIg), or (III) were prepared and administered at doses of 0.001 and 0.01 mpk (e.g., doses of 0.0005 mpk of a formulation including Luc mRNA and a formulation including H10 mRNA or doses of 0.005 mpk of a formulation including Luc mRNA and a formulation including H10 mRNA).
The fluxes measured upon intravenous and intramuscular administration are compared in Table 6. Fluxes are presented as fold increase over that measured for MC3 formulations.

Series [2] can be described thus: LNP formulation characterization (particle size, PDI, RNA encapsulation, endotoxin). Format: physicochemical. The following applies: ± SD within one assay run. The protocol:
Preparation of LNP formulations: Lipids were dissolved in ethanol at molar ratios of 50:10:38.5:1.5 (ionizable lipid: DSPC: cholesterol:PEG-lipid). The lipid mixture was combined with a 6.25 mM sodium acetate buffer (pH 5) containing mRNA at a ratio of 3:1 (aqueous:ethanol) using a microfluidic mixer. Formulations were dialyzed against phosphate buffered saline (pH 7.4) in dialysis cassettes for at least 18 hours. Formulations were concentrated via centrifugal filtration, passed through a 0.22-μm filter and stored at 4° C. until use. […] The apparent pKa of the LNP formulation was determined via a TNS assay.

`CCCCCCCCCOC(=O)CCCCCCCN(CCO)CCCCCCCC(=O)OC(CCCCCCCC)CCCCCCCC` [Compound 18, Heptadecan-9-yl 8-((2-hydroxyethyl)(8-(nonyloxy)-8-oxooctyl)amino)octanoate]: the “Novel lipid/MC3 expression ratio, s.c. Luc (mpk) 0.5” value in the series on luciferase (Luc) mRNA is 1.88. Besides, in the series on hEPO mRNA (mice), the “hEPO expression, 3 h” value is 3e+06 pg/mL and the “hEPO expression, 24 h” value stood at 1.8e+06 pg/mL. In the series with hEPO mRNA (mice, 6 h), the “Cytokine expression, IL-6 (6 h)” value stood at 10.16 pg/mL; the “Cytokine expression, IP-10 (6 h)” value came out at 299.93 pg/mL; the “hEPO expression, 6 h” value was determined as 3.38e+06 pg/mL. For the same compound, the “hEPO concentrations compared with MC3 formulations” value with hEPO mRNA (mice, intravenous, 0.5 mpk, 3, 6 and 24 hours) is reported as “higher hEPO concentrations than MC3 formulations at each time point”. Further, the “lipid levels in tissues on weekly dosing” value with mouse tissues is listed as “significantly lower levels than MC3”.

Consider `CCCCCC=CCC=CCCCCCCCCC(CCCCCCCCC=CCC=CCCCCC)OC(=O)CCCN(C)C` (stereo not drawn) [MC3, heptatriaconta-6,9,28,31-tetraen-19-yl 4-(dimethylamino)butanoate, reference compound], for which, in series [1], the “Total flux, 0.001 mpk Dose” value is 2.76E+06 p/s and the “Total flux, 0.01 mpk Dose” value was determined as 3.68E+07 p/s. For the same compound, the “Average hEPO concentration (pg/ml, 6 h)” value in the series with hEPO mRNA (6 h) turned out to be 1.83e+06 pg/mL. For the same compound, the “Fold increase in hEPO concentration relative to MC3” value with hEPO mRNA (Table 12, 6 h) is 1. For the same compound, in the series with hEPO mRNA (mice), the “hEPO expression, 3 h” value was found to be 1.57e+06 pg/mL and the “hEPO expression, 24 h” value amounted to 810000 pg/mL. In addition, in the series with hEPO mRNA (mice, 6 h), the “Cytokine expression, IL-6 (6 h)” value is 19.85 pg/mL; the “Cytokine expression, IP-10 (6 h)” value was determined as 117.94 pg/mL; the “hEPO expression, 6 h” value was 1.83e+06 pg/mL. In series [2], the “% Encapsulation” value is 97.3 ± 1.9% and the “PDI (polydispersity index)” value came out at 0.11 ± 0.04. Also, the “lipid levels in tissues on weekly dosing” value with mouse tissues is reported as “Accumulation of MC3 was observed after each dose”.

In the case of “Nonyl 8-((6-(heptadecan-9-yloxy)-6-oxohexyl)(2-hydroxyethyl)amino) octanoate [Compound 27]”, the “Novel lipid/MC3 expression ratio, s.c. Luc (mpk) 0.05” value with luciferase (Luc) mRNA (0.05 mpk) came out at 14.45. Moreover, the “Novel lipid/MC3 expression ratio, s.c. Luc (mpk) 0.5” value in the series on luciferase (Luc) mRNA is 4.87. In series [1], the “Total flux, 0.001 mpk Dose” value stood at 2.55E+06 p/s and the “Total flux, 0.01 mpk Dose” value worked out at 3.17E+07 p/s.
